Experimental findings from patent US9902703B2, “Somatostatin modulators and uses thereof” (Crinetics Pharmaceuticals, Inc., priority 2015, dated 2018) are described below.

Molecules are shown by their SMILES.

The term EC50 denotes the concentration needed to bring the measured effect to its halfway point.

In the experiment the target is T1, human somatostatin receptor subtype 2 (Homo sapiens, UniProt P30874).
T1 construct: expressed in transfected cells; host or cells: CHO (Chinese hamster ovary) cells, G-418 selected
T1 sequence (P30874 whole entry): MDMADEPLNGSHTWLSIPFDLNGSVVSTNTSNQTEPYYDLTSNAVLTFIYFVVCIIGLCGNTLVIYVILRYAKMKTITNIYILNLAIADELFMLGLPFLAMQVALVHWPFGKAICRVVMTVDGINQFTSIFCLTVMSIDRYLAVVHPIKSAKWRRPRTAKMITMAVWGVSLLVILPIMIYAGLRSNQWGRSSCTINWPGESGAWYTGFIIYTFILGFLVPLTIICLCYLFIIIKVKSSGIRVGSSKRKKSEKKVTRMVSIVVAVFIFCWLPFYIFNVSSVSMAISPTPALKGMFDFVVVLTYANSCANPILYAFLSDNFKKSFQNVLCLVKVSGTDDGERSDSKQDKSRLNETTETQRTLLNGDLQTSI
As to the kind of experiment: cAMP assay (functional assay for SSTR2 agonists). In kind it is cell-based. The note with it: CHO cells expressing human SSTR2; intracellular cAMP with forskolin, HTRF; read-out: SSTR2a EC50. An excerpt: Functional Assay for SSTR2 Agonists
General overview: All five SSTR subtypes are Gi coupled G-protein coupled receptors (GPCRs) that lead to decreases in intracellular cyclic AMP (cAMP) when activated by an agonist. Therefore, measurement of intracellular cAMP levels can be used to assess whether compounds of the invention are agonists of SSTR subtypes (John Kelly, Troy Stevens, W. Joseph Thompson, and Roland Seifert, Current Protocols in Pharmacology, 2005, 2.2.1-2.2). One example of an intracellular cAMP assay is described below.
One day prior to the assay, 40,000 Chinese hamster ovary (CHO) cells expressing the human somatostatin receptor subtype 2 are plated in each well of a 96-well tissue culture plate in DM-MEM growth media (Gibco) with the following additives: 10% fetal bovine serum (Gibco), 100 U/mL penicillin (Gibco), 100 ug/mL streptomycin (Gibco), 10 mM HEPES (Gibco), 1.2 mM sodium hydroxide, 0.5 mg/mL G-418 (Gibco)). The cells are cultured overnight at 37° C., 5% CO2 and 95% humidity. On the day of the assay, the media is aspirated and the cells are washed with 1× Dulbecco's phosphate buffered saline (Gibco). Next, 5 μL of assay buffer (1× Earle's Balanced Salt Solution (Gibco), 5 mM MgCl2, 10 mM HEPES, 0.1% bovine serum albumin, 0.2 mM 3-Isobutyl-1-methylxanthine (IBMX, Biomol Research Labs)) and forskolin is added. Various dilutions of the compounds of the invention are prepared in assay buffer and 5 μL of the dilutions are added to the cultured cells and incubated for 15 minutes at 37° C. […] 10 μL of lysis buffer (HRTF cAMP kit, Cisbio) containing cAMP detection and visualization antibodies are added and the assay is allowed incubate for 1-24 hours at room temperature. The intracellular cAMP concentrations are then measured using a commercially available detection kit (for example, the cAMP HTRF kit, Cisbio). The measured intracellular cAMP concentrations are plotted vs. the concentration of the compounds of the invention and the EC50 of the compounds are calculated using standard methods.
On the technique in general: Changes in cAMP serve as a functional read-out for many G protein-coupled receptors.
As to `Cc1cc(Cl)cc(N2C=Nc3cc(C)c(-c4cc(C)oc4C)cc3C2C(=O)N(C)C[C@@H]2CCCN2)c1` (stereo partly drawn) [Compound 2-25, 3-(3-chloro-5-methylphenyl)-6-(2,5-dimethylfuran-3-yl)-N,7-dimethyl-N-[(2S)-pyrrolidin-2-ylmethyl]-3,4-dihydroquinazoline-4-carboxamide], the EC50 was in the range of 100 to 1000 nM.

Regarding `COc1cccc(-c2cc3c(cc2C)N=CN(c2cc(C)cc(Cl)c2)C3C(=O)N(C)C[C@@H]2CCCN2)c1C#N` (stereo partly drawn) [Compound 2-30, 3-(3-chloro-5-methylphenyl)-6-(2-cyano-3-methoxyphenyl)-N,7-dimethyl-N-[(2S)-pyrrolidin-2-ylmethyl]-3,4-dihydroquinazoline-4-carboxamide], the EC50 was < 100 nM.

`COc1ccc(Cl)c(-c2cc3c(cc2C)N=CN(c2cc(C)cc(Cl)c2)C3C(=O)N(C)C[C@@H]2CCCN2)c1` (stereo partly drawn) [Compound 2-3, 6-(2-chloro-5-methoxyphenyl)-3-(3-chloro-5-methylphenyl)-N,7-dimethyl-N-[(2S)-pyrrolidin-2-ylmethyl]-3,4-dihydroquinazoline-4-carboxamide]: the EC50 is < 100 nM.

As for `Cc1cc(Cl)cc(N2C=Nc3cc(C)c(-c4cccnc4)cc3C2C(=O)N(C)C[C@@H]2CCCN2)c1` (stereo partly drawn) [Compound 2-2, 3-(3-chloro-5-methylphenyl)-N,7-dimethyl-6-(pyridin-3-yl)-N-[(2S)-pyrrolidin-2-ylmethyl]-3,4-dihydroquinazoline-4-carboxamide], the EC50 is 100 to 1000 nM.

As to `Cc1cc(Cl)cc(N2C=Nc3cc(C)c(-c4cc(F)ccc4Cl)cc3C2C(=O)N(C)C[C@@H]2CCCN2)c1` (stereo partly drawn) [Compound 1-35, 6-(2-chloro-5-fluorophenyl)-3-(3-chloro-5-methylphenyl)-N,7-dimethyl-N-[(2S)-pyrrolidin-2-ylmethyl]-3,4-dihydroquinazoline-4-carboxamide], the EC50 was < 100 nM.

On to `Cc1cc(Cl)cc(N2C=Nc3cc(C)c(-c4cccc(NS(C)(=O)=O)c4)cc3C2C(=O)N(C)C[C@@H]2CCCN2)c1` (stereo partly drawn) [Compound 2-6, 3-(3-chloro-5-methylphenyl)-6-(3-methanesulfonamidophenyl)-N,7-dimethyl-N-[(2S)-pyrrolidin-2-ylmethyl]-3,4-dihydroquinazoline-4-carboxamide], for which the EC50 is 100 to 1000 nM.

Turning to `CC[C@H](N)CN(C)C(=O)C1c2cc(-c3cccc(O)c3)c(C)cc2N=CN1c1cc(C)cc(C)c1` (stereo partly drawn) [Compound 1-9, N-[(2S)-2-aminobutyl]-3-(3,5-dimethylphenyl)-6-(3-hydroxyphenyl)-N,7-dimethyl-3,4-dihydroquinazoline-4-carboxamide], the EC50 was < 100 nM.

Turning to `CC[C@H](N)CN(C)C(=O)C1c2cc(-c3cc(O)ccc3Cl)c(C)cc2N=CN1c1cc(C)cc(C)c1` (stereo partly drawn) [Compound 1-16, N-[(2S)-2-aminobutyl]-6-(2-chloro-5-hydroxyphenyl)-3-(3,5-dimethylphenyl)-N,7-dimethyl-3,4-dihydroquinazoline-4-carboxamide], the EC50 is < 100 nM.

Turning to `Cc1cc(Cl)cc(N2C=Nc3cc(C)c(-c4cc(F)cc(C(N)=O)c4)cc3C2C(=O)N(C)C[C@@H]2CCCN2)c1` (single isomer, unassigned) [Compound 3-1], the concentration for a half-maximal effect (EC50) was < 100 nM.

As to `CC[C@H](N)CN(C)C(=O)C1c2cc(-c3cccc(O)c3)c(C)cc2N=CN1c1cc(C)cc(Cl)c1` (stereo partly drawn) [Compound 1-13, N-[(2S)-2-aminobutyl]-3-(3-chloro-5-methylphenyl)-6-(3-hydroxyphenyl)-N,7-dimethyl-3,4-dihydroquinazoline-4-carboxamide], the EC50 was < 100 nM.

With `Cc1cc(C#N)cc(-c2cc3c(cc2C)N=CN(c2cc(C)cc(Cl)c2)C3C(=O)N(C)C[C@@H]2CCCN2)c1` (stereo partly drawn) [Compound 1-39, 3-(3-chloro-5-methylphenyl)-6-(3-cyano-5-methylphenyl)-N,7-dimethyl-N-[(2S)-pyrrolidin-2-ylmethyl]-3,4-dihydroquinazoline-4-carboxamide], the EC50 was < 100 nM.

Regarding `Cc1cc(Cl)cc(N2C=Nc3cc(C)c(-c4cccc(S(C)(=O)=O)c4)cc3C2C(=O)N(C)C[C@@H]2CCCN2)c1` (stereo partly drawn) [Compound 1-46, 3-(3-chloro-5-methylphenyl)-6-(3-methanesulfonylphenyl)-N,7-dimethyl-N-[(2S)-pyrrolidin-2-ylmethyl]-3,4-dihydroquinazoline-4-carboxamide], the EC50 is 100 to 1000 nM.

In the case of `CC1=Nc2ccc(-c3cc(O)ccc3Cl)cc2C(C(=O)N(C)C[C@@H]2CCCN2)N1c1cc(C)cc(Cl)c1` (stereo partly drawn) [Compound 1-27, 6-(2-chloro-5-hydroxyphenyl)-3-(3-chloro-5-methylphenyl)-N,2-dimethyl-N-[(2S)-pyrrolidin-2-ylmethyl]-3,4-dihydroquinazoline-4-carboxamide], the EC50 is < 100 nM.

As to `Cc1cc(Cl)cc(N2C=Nc3cc(C)c(-c4ccncc4Cl)cc3C2C(=O)N(C)C[C@@H]2CCCN2)c1` (stereo partly drawn) [Compound 2-26, 3-(3-chloro-5-methylphenyl)-6-(3-chloropyridin-4-yl)-N,7-dimethyl-N-[(2S)-pyrrolidin-2-ylmethyl]-3,4-dihydroquinazoline-4-carboxamide], the EC50 lay within 100 to 1000 nM.

With `Cc1cc(Cl)cc(N2C=Nc3cc(C)c(-c4cccc(O)c4C#N)cc3C2C(=O)N(C)C[C@@H]2CCCN2)c1` (stereo partly drawn) [Compound 2-31, 3-(3-chloro-5-methylphenyl)-6-(2-cyano-3-hydroxyphenyl)-N,7-dimethyl-N-[(2S)-pyrrolidin-2-ylmethyl]-3,4-dihydroquinazoline-4-carboxamide], the 50% effective concentration (EC50) lay in the range of 100 to 1000 nM.

As for `Cc1cc(Cl)cc(N2C=Nc3cc(C)c(-c4ccc5[nH]c(=O)[nH]c5c4)cc3C2C(=O)N(C)C[C@@H]2CCCN2)c1` (stereo partly drawn) [Compound 2-34, 3-(3-chloro-5-methylphenyl)-N,7-dimethyl-6-(2-oxo-2,3-dihydro-1H-1,3-benzodiazol-5-yl)-N-[(2S)-pyrrolidin-2-ylmethyl]-3,4-dihydroquinazoline-4-carboxamide], the EC50 is < 100 nM.

On to `Cc1cc(Cl)cc(N2C=Nc3cc(C)c(-c4cc(F)ccc4O)cc3C2C(=O)N(C)C[C@@H]2CCCN2)c1` (single isomer, unassigned) [Compound 3-2], for which the EC50 is < 100 nM.

As for `COc1cc(F)cc(N2C=Nc3cc(C)c(-c4cc(O)ccc4F)cc3C2C(=O)N(C)C[C@@H]2CCCN2)c1` (stereo partly drawn) [Compound 1-22, 6-(2-fluoro-5-hydroxyphenyl)-3-(3-fluoro-5-methoxyphenyl)-N,7-dimethyl-N-[(2S)-pyrrolidin-2-ylmethyl]-3,4-dihydroquinazoline-4-carboxamide], the EC50 is < 100 nM.

For the molecule `Cc1cc(Cl)cc(N2C=Nc3cc(C)c(-c4cccc(C#N)c4)cc3C2C(=O)N(C)C[C@@H]2CCCN2)c1` (stereo partly drawn) [Compound 1-33, 3-(3-chloro-5-methylphenyl)-6-(3-cyanophenyl)-N,7-dimethyl-N-[(2S)-pyrrolidin-2-ylmethyl]-3,4-dihydroquinazoline-4-carboxamide], the EC50 is < 100 nM.

Consider `COc1cc(-c2cc3c(cc2C)N=CN(c2cc(C)cc(Cl)c2)C3C(=O)N(C)C[C@@H]2CCCN2)ccc1C` (stereo partly drawn) [Compound 2-16, 3-(3-chloro-5-methylphenyl)-6-(3-methoxy-4-methylphenyl)-N,7-dimethyl-N-[(2S)-pyrrolidin-2-ylmethyl]-3,4-dihydroquinazoline-4-carboxamide], for which the EC50 was < 100 nM.

With `Cc1cc(Cl)cc(N2C=Nc3cc(C)c(-c4cccc(C(N)=O)n4)cc3C2C(=O)N(C)C[C@@H]2CCCN2)c1` (stereo partly drawn) [Compound 2-11, 6-(6-carbamoylpyridin-2-yl)-3-(3-chloro-5-methylphenyl)-N,7-dimethyl-N-[(2S)-pyrrolidin-2-ylmethyl]-3,4-dihydroquinazoline-4-carboxamide], the concentration giving a half-maximal response (EC50) is < 100 nM.

As to `COc1cc(F)cc(N2C=Nc3cc(C)c(-c4cc(O)ccc4F)cc3C2C(=O)N(C)C[C@@H]2CCCN2C)c1` (stereo partly drawn) [Compound 1-52, 6-(2-fluoro-5-hydroxyphenyl)-3-(3-fluoro-5-methoxyphenyl)-N,7-dimethyl-N-{[(2S)-1-methylpyrrolidin-2-yl]methyl}-3,4-dihydroquinazoline-4-carboxamide], the EC50 is < 100 nM.

As to `Cc1cc(Cl)cc(N2C=Nc3cc(C)c(-c4ccccc4)cc3C2C(=O)N(C)C[C@@H]2CCCN2)c1` (stereo partly drawn) [Compound 1-32, 3-(3-chloro-5-methylphenyl)-N,7-dimethyl-6-phenyl-N-[(2S)-pyrrolidin-2-ylmethyl]-3,4-dihydroquinazoline-4-carboxamide], the EC50 was < 100 nM.

On to `Cc1cc(C)cc(N2C=Nc3cc(Cl)c(-c4cccc(O)c4)cc3C2C(=O)N(C)C[C@H](C)N)c1` (stereo partly drawn) [Compound 1-4, N-[(2S)-2-aminopropyl]-7-chloro-3-(3,5-dimethylphenyl)-6-(3-hydroxyphenyl)-N-methyl-3,4-dihydroquinazoline-4-carboxamide], for which the EC50 is < 100 nM.
